Laboratory results reported in patent US8420670B2 (Abbott Laboratories, priority 2007, dated 2013).
Counter-ions that a name gives are not always drawn.

Key:
human GlyT1c transporter = biological target: T1, human GlyT1c transporter (Homo sapiens, UniProt P48067); assay: [3H]-(R)-NPTS radioligand binding assay using recombinant hGlyT1 expressing cell membranes; conditions: 0.5 nM [3H]-(R)-NPTS, apparent Ki via Cheng-Prusoff, read-out: [3H]-(R)-NPTS bindung Ki
T1 construct: expressed in transfected cells; host or cells: recombinant hGlyT1-expressing cells
T1 sequence (P48067 1-706): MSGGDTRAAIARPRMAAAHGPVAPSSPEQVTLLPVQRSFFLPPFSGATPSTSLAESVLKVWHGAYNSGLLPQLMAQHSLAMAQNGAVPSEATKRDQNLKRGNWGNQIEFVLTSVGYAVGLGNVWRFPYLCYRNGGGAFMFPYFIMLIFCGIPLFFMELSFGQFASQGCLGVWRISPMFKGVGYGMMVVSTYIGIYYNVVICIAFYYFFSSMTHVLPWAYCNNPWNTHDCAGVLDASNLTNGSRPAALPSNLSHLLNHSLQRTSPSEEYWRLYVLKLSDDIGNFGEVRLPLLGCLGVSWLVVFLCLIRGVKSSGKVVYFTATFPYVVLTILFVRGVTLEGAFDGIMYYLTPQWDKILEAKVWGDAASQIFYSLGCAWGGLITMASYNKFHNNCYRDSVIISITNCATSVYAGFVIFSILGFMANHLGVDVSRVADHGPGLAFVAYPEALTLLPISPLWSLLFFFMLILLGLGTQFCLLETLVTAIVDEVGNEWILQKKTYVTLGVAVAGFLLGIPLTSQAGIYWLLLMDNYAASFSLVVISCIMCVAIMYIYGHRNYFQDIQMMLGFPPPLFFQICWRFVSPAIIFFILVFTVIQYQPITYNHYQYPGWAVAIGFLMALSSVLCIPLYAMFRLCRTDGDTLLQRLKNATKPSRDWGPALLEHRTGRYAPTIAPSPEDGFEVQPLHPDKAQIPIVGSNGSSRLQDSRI
Method: 2. [^3H]-(R)-NPTS Radioligand Binding Assays using Recombinant hGlyT1 Expressing Cell Membranes:
Radioligand binding to human GlyT1c transporter-expressing membranes was measured in duplicate in a total volume of 200 μl in 96-well plates. To 100 μl of membrane suspension (yielding a final membrane protein concentration of 50 μg/ml) in assay buffer (120 mM NaCl, 2 mM KCl, 10 mM Hepes, 1 mM MgCl2, 1 mM CaCl2, pH 7.5) […] of [^3H]-(R)NPTS (0.5 nM final) were added in assay buffer. For competition experiments 10 μl of buffer or unlabeled compound solution obtained from dilution series of test compounds in DMSO followed. An intermediate 1:10 dilution in assay buffer yielded a final DMSO concentration of 1%. Non-specific binding was determined in the presence of 10 μM Org24598 (or its racemate Org24461) for [^3H]-(R)-NPTS. After incubation at room temperature for 1 h, the incubation mixture was harvested (Tomtec Mach III U Harvester) through 96-well GF/B filter plates (PerkinElmer), presoaked for 1 h with 40 μl per well of 0.1% polyethylene-imine (PEI). After washing twice with ice-cold 50 mM Tris-HCl pH 7.4 buffer, drying and addition of 35 μl scintillator (BetaplateScint, PerkinElmer) per well followed. The radioactivity was determined by liquid scintillation spectrometry in a MicroBeta (PerkinElmer) plate counter.
Data analysis: For binding of [^3H]-(R)-NPTS to cell membranes, the calculation of Kd and Bmax values from the saturation binding assays and the IC50 values from the displacement binding was performed by iterative non-linear regression analysis adapted from the ‘Ligand’ program (Munson and Rodbard, 1980). Radioligand displacement curves in absence or in presence of increasing concentrations of tested compounds were fitted using a one-site fit and the apparent Ki values were calculated from the IC50 values using the Cheng-Prusoff equation (Cheng and Prusoff 1973).

Human GlyT1c = biological target: T2, Human GlyT1c (Homo sapiens, UniProt P48067); assay: Glycine uptake in recombinant hGlyT1 expressing cells; assay type: cell-based; conditions: hGlyT1c_5_CHO cells; [3H]-glycine uptake, 60-120 min
T2 construct: expressed in transfected cells; host or cells: CHO (hGlyT1c_5_CHO clone)
T2 sequence (P48067 1-706): T1 sequence (P48067 1-706)
Method: 1. Glycine Uptake in Recombinant hGlyT1 Expressing Cells:
Human GlyT1c expressing recombinant hGlyT1c—5_CHO cells were plated at 20,000 cells per well in 96 well Cytostar-T scintillation microplates (Amersham Biosciences) and cultured to sub-confluency for 24 h. For glycine uptake assays the culture medium was aspirated and the cells were washed once with 100 μl HBSS (Gibco BRL, #14025-050) with 5 mM L-Alanine (Merck #1007). 80 μl HBSS buffer were added, followed by 10 μl inhibitor or vehicle (10% DMSO) and 10 μl [^3H]-glycine (TRK71, Amersham Biosciences) to a final concentration of […] for initiation of glycine uptake. The plates were placed in a Wallac Microbeta (PerkinElmer) and continuously counted by solid phase scintillation spectrometry during up to 3 hours. Nonspecific uptake was determined in the presence of 10 μM Org24598. IC50 calculations were made by four-parametric logistic nonlinear regression analysis (GraphPad Prism) using determinations within the range of linear increase of [^3H]-glycine incorporation between 60 and 120 min.

Ki (human GlyT1c transporter) [µM]	IC50 (Human GlyT1c) [µM]	Structure (SMILES)
≤ 0.1	≤ 1	Cc1cc(NCc2ccc(Cl)c(Cl)c2)c2cccc(OCCN3CCCC3)c2n1 [Example 52, (3,4-Dichlorobenzyl)-[2-methyl-8-(2-pyrrolidin-1-yl-ethoxy)-quinolin-4-yl]-amine]
≤ 10	≤ 100	C=CCN1CCCC[C@H]1[C@@H](Nc1cc(C)nc2c(OC)cccc12)c1ccccc1 [Example 53, [(S)—((S)-1-Allylpiperidin-2-yl)-phenylmethyl]-(8-methoxy-2-methylquinolin-4-yl)-amine]
≤ 1	≤ 1	COc1cccc2c(N[C@@H](c3ccccc3)[C@@H]3CCCCN3)cc(C)nc12 [Example 54, (8-Methoxy-2-methylquinolin-4-yl)-((S)-phenyl-(S)-piperidin-2-yl-methyl)-amine]
≤ 1	≤ 10	Cc1cc(NCc2ccc(Cl)c(Cl)c2)c2cccc(Oc3ccccn3)c2n1 [Example 55, (3,4-Dichlorobenzyl)-[2-methyl-8-(pyridin-2-yloxy)-quinolin-4-yl]-amine]
≤ 1	≤ 0.1	Cc1cc(NCc2ccc(Cl)c(Cl)c2)c2cccc(OC(F)(F)F)c2n1 [Example 56, (3,4-Dichloro-benzyl)-(2-methyl-8-trifluoromethoxyquinolin-4-yl)-amine]
≤ 10	≤ 100	COc1cccc2c(N[C@@H](C)c3ccc(Cl)cc3)cc(C)nc12 [Example 57, [(S)-1-(4-Chlorophenyl)-ethyl]-(8-methoxy-2-methylquinolin-4-yl)-amine]
≤ 0.1	≤ 1	COc1cccc2c(N[C@H](C)c3ccc(Cl)cc3)cc(C)nc12 [Example 58, [(R)-1-(4-Chlorophenyl)-ethyl]-(8-methoxy-2-methylquinolin-4-yl)-amine]
≤ 10	≤ 100	C=CCN1CCCC[C@H]1[C@@H](Nc1cc(C)nc2ccccc12)c1ccccc1 [Example 59, [(S)—((S)-1-Allylpiperidin-2-yl)-phenylmethyl]-(2-methylquinolin-4-yl)-amine]
≤ 1	≤ 1	Cc1cc(N[C@@H](c2ccccc2)[C@@H]2CCCCN2)c2ccccc2n1 [Example 60, (2-Methylquinolin-4-yl)-((S)-phenyl-(S)-piperidin-2-yl-methyl)-amine]
≤ 10	≤ 10	Cc1cc(N[C@@H](c2ccccc2)[C@@H]2CCCCN2C)c2ccccc2n1 [Example 61, (S)—((S)-1-Methylpiperidin-2-yl)-phenylmethyl]-(2-methylquinolin-4-yl)-amine dihydrochloride]
≤ 10	≤ 10	COc1cccc2c(NC(CN3CCOCC3)c3ccccc3)cc(C)nc12 (stereo not shown) [Example 62, (8-Methoxy-2-methylquinolin-4-yl)-(2-morpholin-4-yl-1-phenyl)-ethylamine]
≤ 10	≤ 100	COc1cccc2c(NC(CN3CCCCC3)c3ccccc3)cc(C)nc12 (stereo not shown) [Example 63, (8-Methoxy-2-methyl-quinolin-4-yl)-(1-phenyl-2-piperidin-1-yl)-ethylamine]
≤ 10	≤ 10	COc1cccc2c(NC(c3ccccc3)c3ccc(Cl)cc3)cc(C)nc12 (stereo not shown) [Example 64, [(4-Chlorophenyl)-phenylmethyl]-(8-methoxy-2-methylquinolin-4-yl)-amine]
≤ 10	≤ 10	COc1cccc2c(NC(CN3CCOCC3)c3ccc(Cl)cc3)cc(C)nc12 (stereo not shown) [Example 65, [1-(4-Chlorophenyl)-2-morpholin-4-yl-ethyl]-(8-methoxy-2-methylquinolin-4-yl)-amine]
≤ 10	≤ 10	COc1cccc2c(NC(CN3CCCCC3)c3ccc(Cl)cc3)cc(C)nc12 (stereo not shown) [Example 66, [1-(4-Chlorophenyl)-2-piperidin-1-yl-ethyl]-(8-methoxy-2-methylquinolin-4-yl)-amine]
≤ 1	≤ 10	COc1cccc2c(NC(CN3CCCC3)c3ccc(Cl)cc3)cc(C)nc12 (stereo not shown) [Example 67, [1-(4-Chloro-phenyl)-2-pyrrolidin-1-yl-ethyl]-(8-methoxy-2-methyl-quinolin-4-yl)-amine]
≤ 10	≤ 10	COc1cccc2c(NC(CN3CCCC3)c3ccccc3)cc(C)nc12 (stereo not shown) [Example 69, (8-Methoxy-2-methylquinolin-4-yl)-(1-phenyl-2-pyrrolidin-1-ylethyl)-amine]
≤ 10	≤ 100	COc1cccc2c(NC(c3ccc(Cl)cc3)c3nccn3C)cc(C)nc12 (stereo not shown) [Example 70, [(4-Chlorophenyl)-(1-methyl-1H-imidazol-2-yl)-methyl]-(8-methoxy-2-methylquinoline-4-yl)amine]
≤ 0.1	≤ 1	COc1cccc2c(NC(CN(C)C)c3ccccc3)cc(C)nc12 (stereo not shown) [Example 71, N*1*-(8-Methoxy-2-methylquinolin-4-yl)-N*2*,N*2*-dimethyl-1-phenylethane-1,2-diamine]
≤ 1	≤ 10	COc1cccc2c(NC(c3ccc(Cl)cc3)C3CC3)cc(C)nc12 (stereo not shown) [Example 72, [(4-Chlorophenyl)-cyclopropylmethyl]-(8-methoxy-2-methylquinolin-4-yl)-amine]
≤ 1	≤ 1	COc1cccc2c(NC(c3ccncc3)c3ccc(Cl)cc3)cc(C)nc12 (stereo not shown) [Example 73, [(4-Chlorophenyl)-pyridin-4-ylmethyl]-(8-methoxy-2-methylquinolin-4-yl)-amine]
≤ 10	≤ 1000	COc1cccc2c(NC(C(N)=O)c3ccccc3)cc(C)nc12 (stereo not shown) [Example 74, 2-(8-Methoxy-2-methylquinolin-4-ylamino)-2-phenylacetamide]
≤ 1	≤ 1	COc1cccc2c(NC(CN)c3ccccc3)cc(C)nc12 (stereo not shown) [Example 75, N*1*-(8-Methoxy-2-methylquinolin-4-yl)-1-phenylethane-1,2-diamine]
≤ 0.001	≤ 0.1	COc1cccc2c(N[C@H](CN(C)C)c3ccc(Cl)cc3)cc(C)nc12 [Example 76, (S)-1-(4-Chlorophenyl)-N*1*-(8-methoxy-2-methylquinolin-4-yl)-N*2*,N*2*-dimethylethane-1,2-diamine]
≤ 1	≤ 10	COc1cccc2c(N[C@@H](CN(C)C)c3ccc(Cl)cc3)cc(C)nc12 [Example 77, (R)-1-(4-Chlorphenyl)-N*1*-(8-methoxy-2-methylquinoline-4-yl)-N*2*,N*2*-dimethylethane-1,2-diamin]
≤ 1	≤ 10	COc1cccc2c(NC(CNCc3ccccc3)c3ccccc3)cc(C)nc12 (stereo not shown) [Example 78, N*2*-Benzyl-N*1*-(8-methoxy-2-methylquinolin-4-yl)-1-phenylethane-1,2-diamine]
